Experimental data: patent US6303619A, “Meta-substituted acidic 8-phenylxanthine antagonists of A3 human adenosine receptors” (priority 1998, dated 2001)

Biological target: T1, human A1 adenosine receptor (Homo sapiens, UniProt P30542)
T1 construct: expressed in transfected cells; host or cells: COS7 or CHO cells
T1 sequence (P30542 1-326): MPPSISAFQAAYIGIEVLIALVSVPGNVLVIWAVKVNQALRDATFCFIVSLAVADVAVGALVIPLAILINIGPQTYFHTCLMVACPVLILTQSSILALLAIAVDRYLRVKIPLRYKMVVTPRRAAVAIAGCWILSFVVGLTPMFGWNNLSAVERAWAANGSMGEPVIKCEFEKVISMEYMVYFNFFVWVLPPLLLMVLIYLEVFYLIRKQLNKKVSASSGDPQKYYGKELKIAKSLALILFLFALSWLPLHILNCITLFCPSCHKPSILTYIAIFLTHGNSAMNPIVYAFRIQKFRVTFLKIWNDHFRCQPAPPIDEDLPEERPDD
Test: competition binding, recombinant human A1 adenosine receptor
Settings: A3 versus A1
Method: Monolayer cell culture of transfected COS7 cells were dissociated with 1 mM EDTA in phosphate buffered saline and resuspended in 5 mM Tris, pH7.6/10 mM MgCl2. The cells were subjected to freeze-thaw lysis and the suspension was homogenized in a glass dounce homogenizer. The membranes were pelleted, resuspended in binding buffer, 50 mM Tris pH 7.6/10 mM MgCl2 and incubated with adenosine deaminase before the binding assay. The binding assay was performed by incubating 50-100 Fg of membranes with increasing concentrations of radiolabeled adenosine agonists. Bound ligand was separated from free ligand by filtration on a SKATRON CELL […] equipped with a receptor binding filtermat. Bound radioactivity was measured by scintillation counting. Substances which bind to or enhance binding to expressed human adenosine receptors in COS and CHO cells can be identified in competition binding assays with radiolabeled adenosine or xanthine analogs. […] Protein concentration was determined by tie method of Bradford ((1976) Anal. Biochem. 72: 248-250). […] Bound radioactivity was measured by scintillation counting in READY SAFE SCINTILLATION COCKTAIL (BECKMAN). […] Non-specific binding was determined in the presence of 100 FM CPA. Bound radioactivity was measured by scintillation counting in READY SAFE LIQUID SCINTILLATION COCKTAIL (BECKMAN).

For CCCn1c(=O)c2[nH]c(-c3cccc(C=CC(=O)O)c3)nc2n(CCC)c1=O [BW-3911], the “fold selectivity for A3 compared to human A1” value was 47 fold.
